Data from ChEMBL document CHEMBL5696442, “Discovery of type II inhibitors of TGFβ-activated kinase 1 (TAK1) and mitogen-activated protein kinase kinase kinase kinase 2 (MAP4K2)” (J Med Chem, 2015).
The source made the active and inactive calls. No cut-off for these calls is given here.

Columns and labels:
[1] = biological target: TRAF2 and NCK-interacting protein kinase (Homo sapiens) (UniProt Q9UKE5); experiment: Inhibition of ZC2/TNIK K2 labeling site in human Huh-7 cells at 1 uM by KiNativ Profiling analysis relative to control; type: cell-based
[2] = biological target: T1, Serine/threonine-protein kinase ULK3 (Homo sapiens) (UniProt Q6PHR2); experiment: Inhibition of ULK3 Lys2 labeling site in human A-375 cells at 0.05 uM by KiNativ Profiling analysis relative to control; type: cell-based
T1 sequence (whole entry): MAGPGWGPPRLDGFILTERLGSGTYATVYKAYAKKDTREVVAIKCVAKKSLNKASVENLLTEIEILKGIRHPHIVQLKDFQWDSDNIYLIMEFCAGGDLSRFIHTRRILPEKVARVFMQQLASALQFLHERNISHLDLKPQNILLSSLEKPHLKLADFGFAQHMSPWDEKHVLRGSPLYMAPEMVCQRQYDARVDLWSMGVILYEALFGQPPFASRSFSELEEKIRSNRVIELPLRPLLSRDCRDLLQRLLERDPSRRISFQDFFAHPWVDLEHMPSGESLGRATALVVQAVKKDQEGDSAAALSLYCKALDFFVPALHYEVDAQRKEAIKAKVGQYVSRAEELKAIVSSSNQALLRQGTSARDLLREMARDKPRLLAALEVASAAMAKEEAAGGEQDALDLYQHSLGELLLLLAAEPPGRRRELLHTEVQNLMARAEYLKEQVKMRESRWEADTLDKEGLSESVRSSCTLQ

[3] = biological target: Proto-oncogene tyrosine-protein kinase ROS (Homo sapiens) (UniProt P08922); experiment: Inhibition of ROS1 (unknown origin) at 10 uM by Ambit Kinomescan binding assay
[4] = biological target: Casein kinase II subunit alpha (Homo sapiens) (UniProt P68400); experiment: Inhibition of CK2a1 in human Huh-7 cells at 10 uM by KiNativ Profiling analysis relative to control; type: cell-based
[5] = biological target: T2, EKC/KEOPS complex subunit TP53RK (Homo sapiens) (UniProt Q96S44); experiment: Inhibition of PRPK ATP Loop labeling site in human A-375 cells at 5 uM by KiNativ Profiling analysis relative to control; type: cell-based
T2 sequence (whole entry): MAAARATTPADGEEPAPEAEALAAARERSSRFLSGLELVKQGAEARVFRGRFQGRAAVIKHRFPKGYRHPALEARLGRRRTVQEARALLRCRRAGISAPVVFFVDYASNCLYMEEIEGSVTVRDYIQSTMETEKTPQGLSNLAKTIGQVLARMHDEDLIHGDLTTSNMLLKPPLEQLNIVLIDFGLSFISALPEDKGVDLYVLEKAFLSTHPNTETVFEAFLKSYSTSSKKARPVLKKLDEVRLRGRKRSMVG

[6] = biological target: AMPK alpha1/alpha2 (Homo sapiens) (UniProt P54646+Q13131); experiment: Inhibition of AMPK alpha1/2 K2 labeling site in human Huh-7 cells at 1 uM by KiNativ Profiling analysis relative to control; type: cell-based
[7] = biological target: Serine/threonine-protein kinase Nek6 (Homo sapiens) (UniProt Q9HC98); experiment: Inhibition of NEK6 ACT labeling site in human Huh-7 cells at 10 uM by KiNativ Profiling analysis relative to control; type: cell-based
[8] = biological target: c-Jun N-terminal kinase, JNK (Homo sapiens) (UniProt P45983+P53779+P45984); experiment: Inhibition of JNK1/2/3 K2 labeling site in human Huh-7 cells at 10 uM by KiNativ Profiling analysis relative to control; type: cell-based
[9] = biological target: Fibroblast growth factor receptor 2 (Homo sapiens) (UniProt P21802); experiment: Inhibition of FGFR2 (unknown origin) at 10 uM by Ambit Kinomescan binding assay relative to control; values are per cent of control
[10] = biological target: Tyrosine-protein kinase ITK/TSK (Homo sapiens) (UniProt Q08881); experiment: Inhibition of ITK (unknown origin) at 10 uM by Ambit Kinomescan binding assay
[11] = biological target: Glycogen synthase kinase-3 alpha (Homo sapiens) (UniProt P49840); experiment: Inhibition of GSK3A (unknown origin) at 1 uM by Ambit Kinomescan binding assay relative to control; values are per cent of control
[12] = biological target: Serine/threonine-protein kinase 4 (Homo sapiens) (UniProt Q13043); experiment: Inhibition of MST1 Lys1 labeling site harbouring AIHKETGQIVAIKQVPVESDLQEIIK in human A-375 cells at 0.05 uM by KiNativ Profiling analysis relative to control
[13] = biological target: Ribosomal protein S6 kinase alpha-5 (Homo sapiens) (UniProt O75582); experiment: Inhibition of C-terminal RPS6KA5 kinase domain 2 (unknown origin) at 1 uM by Ambit Kinomescan binding assay relative to control
[14] = biological target: T3, Mitogen-activated protein kinase kinase kinase 2 (Homo sapiens) (UniProt Q9Y2U5); experiment: Inhibition of MAP3K2 Lys1 labeling site in human Huh-7 cells at 1 uM by KiNativ Profiling analysis relative to control; type: cell-based
T3 sequence (whole entry): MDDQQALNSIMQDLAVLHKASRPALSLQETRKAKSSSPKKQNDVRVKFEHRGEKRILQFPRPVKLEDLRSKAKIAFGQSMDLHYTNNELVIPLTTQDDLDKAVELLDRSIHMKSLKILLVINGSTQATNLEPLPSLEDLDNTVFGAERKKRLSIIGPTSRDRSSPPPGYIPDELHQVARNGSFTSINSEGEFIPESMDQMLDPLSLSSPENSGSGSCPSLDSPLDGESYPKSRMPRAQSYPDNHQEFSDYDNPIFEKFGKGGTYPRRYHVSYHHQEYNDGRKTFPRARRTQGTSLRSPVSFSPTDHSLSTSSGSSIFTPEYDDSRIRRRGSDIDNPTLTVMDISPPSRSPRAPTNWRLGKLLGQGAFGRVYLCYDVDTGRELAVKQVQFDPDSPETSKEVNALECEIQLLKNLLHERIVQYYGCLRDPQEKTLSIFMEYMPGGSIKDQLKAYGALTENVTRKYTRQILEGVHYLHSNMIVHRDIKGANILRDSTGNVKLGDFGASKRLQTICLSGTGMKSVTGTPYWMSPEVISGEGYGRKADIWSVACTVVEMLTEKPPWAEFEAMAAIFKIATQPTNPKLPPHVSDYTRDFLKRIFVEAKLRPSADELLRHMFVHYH

[15] = biological target: Serine/threonine-protein kinase 16 (Homo sapiens) (UniProt O75716); experiment: Inhibition of MPSK1 Lys2 labeling site in human Huh-7 cell lysate at 1 uM by KiNativ Profiling analysis relative to control; type: subcellular
[16] = biological target: Cyclin-dependent kinase 5 (Homo sapiens) (UniProt Q00535); experiment: Inhibition of CDK5 Lys2 labeling site harbouring NVLHRDLKPQNLLINR in human Huh-7 cell lysate at 1 uM by KiNativ Profiling analysis relative to control; type: subcellular
[17] = biological target: Serine/threonine-protein kinase WNK4 (Homo sapiens) (UniProt Q96J92); experiment: Inhibition of Wnk4 ACT labeling site in human Huh-7 cells at 1 uM by KiNativ Profiling analysis relative to control; type: cell-based

Sequence of TRAF2 and NCK-interacting protein kinase (Homo sapiens) (Q9UKE5 whole entry, looked up): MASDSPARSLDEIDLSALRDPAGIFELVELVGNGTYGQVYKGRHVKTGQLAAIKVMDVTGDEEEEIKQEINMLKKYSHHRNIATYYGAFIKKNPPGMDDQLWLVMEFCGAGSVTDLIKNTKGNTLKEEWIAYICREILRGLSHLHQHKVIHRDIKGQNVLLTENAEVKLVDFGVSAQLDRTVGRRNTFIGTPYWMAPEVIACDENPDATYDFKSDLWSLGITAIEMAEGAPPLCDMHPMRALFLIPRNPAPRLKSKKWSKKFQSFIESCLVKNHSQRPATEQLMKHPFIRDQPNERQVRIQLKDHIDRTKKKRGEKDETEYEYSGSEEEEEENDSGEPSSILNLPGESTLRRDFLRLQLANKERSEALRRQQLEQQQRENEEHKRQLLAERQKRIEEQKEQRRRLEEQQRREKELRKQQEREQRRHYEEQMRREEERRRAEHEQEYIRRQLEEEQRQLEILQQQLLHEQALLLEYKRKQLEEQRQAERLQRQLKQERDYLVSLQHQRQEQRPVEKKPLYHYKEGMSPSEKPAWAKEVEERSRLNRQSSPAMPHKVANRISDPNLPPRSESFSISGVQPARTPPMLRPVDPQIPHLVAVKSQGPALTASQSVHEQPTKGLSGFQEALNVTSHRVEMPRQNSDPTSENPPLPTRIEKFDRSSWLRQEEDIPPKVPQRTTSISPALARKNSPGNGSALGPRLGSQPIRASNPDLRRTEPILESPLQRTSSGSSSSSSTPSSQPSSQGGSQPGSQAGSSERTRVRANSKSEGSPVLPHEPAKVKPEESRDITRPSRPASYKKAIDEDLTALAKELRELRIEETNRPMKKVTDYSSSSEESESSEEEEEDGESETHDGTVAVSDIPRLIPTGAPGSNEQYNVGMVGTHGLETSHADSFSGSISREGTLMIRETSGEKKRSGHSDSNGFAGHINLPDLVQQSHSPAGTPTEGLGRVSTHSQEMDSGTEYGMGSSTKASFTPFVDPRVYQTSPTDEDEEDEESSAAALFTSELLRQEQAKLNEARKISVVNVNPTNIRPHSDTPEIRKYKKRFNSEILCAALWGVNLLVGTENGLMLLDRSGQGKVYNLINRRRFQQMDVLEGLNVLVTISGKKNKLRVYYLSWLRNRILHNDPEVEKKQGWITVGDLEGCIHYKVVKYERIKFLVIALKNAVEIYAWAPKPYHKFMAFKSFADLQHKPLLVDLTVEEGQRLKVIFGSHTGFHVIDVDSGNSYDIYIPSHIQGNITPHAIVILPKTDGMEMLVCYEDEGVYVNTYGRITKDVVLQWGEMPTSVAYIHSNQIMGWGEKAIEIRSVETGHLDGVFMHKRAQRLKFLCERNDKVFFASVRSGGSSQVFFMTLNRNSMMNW
Sequence of Tyrosine-protein kinase ITK/TSK (Homo sapiens) (Q08881 whole entry): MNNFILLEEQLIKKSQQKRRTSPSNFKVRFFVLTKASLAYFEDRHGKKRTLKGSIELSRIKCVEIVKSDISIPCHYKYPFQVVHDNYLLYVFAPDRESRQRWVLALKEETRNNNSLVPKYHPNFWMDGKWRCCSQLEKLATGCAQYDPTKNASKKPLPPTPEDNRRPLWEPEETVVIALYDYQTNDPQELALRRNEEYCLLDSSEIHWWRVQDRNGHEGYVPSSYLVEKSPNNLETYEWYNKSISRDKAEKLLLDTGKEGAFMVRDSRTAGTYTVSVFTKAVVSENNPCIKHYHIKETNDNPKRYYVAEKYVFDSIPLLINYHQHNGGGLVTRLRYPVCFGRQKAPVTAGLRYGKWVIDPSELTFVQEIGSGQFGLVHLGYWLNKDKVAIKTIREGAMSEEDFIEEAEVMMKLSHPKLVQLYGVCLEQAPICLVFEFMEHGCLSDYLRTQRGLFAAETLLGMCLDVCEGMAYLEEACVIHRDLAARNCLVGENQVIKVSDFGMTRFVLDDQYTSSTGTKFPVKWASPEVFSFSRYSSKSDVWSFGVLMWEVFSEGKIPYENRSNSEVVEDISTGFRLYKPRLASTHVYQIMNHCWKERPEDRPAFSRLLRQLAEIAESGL
Sequence of Ribosomal protein S6 kinase alpha-5 (Homo sapiens) (O75582 whole entry, looked up, the tested form may be a part): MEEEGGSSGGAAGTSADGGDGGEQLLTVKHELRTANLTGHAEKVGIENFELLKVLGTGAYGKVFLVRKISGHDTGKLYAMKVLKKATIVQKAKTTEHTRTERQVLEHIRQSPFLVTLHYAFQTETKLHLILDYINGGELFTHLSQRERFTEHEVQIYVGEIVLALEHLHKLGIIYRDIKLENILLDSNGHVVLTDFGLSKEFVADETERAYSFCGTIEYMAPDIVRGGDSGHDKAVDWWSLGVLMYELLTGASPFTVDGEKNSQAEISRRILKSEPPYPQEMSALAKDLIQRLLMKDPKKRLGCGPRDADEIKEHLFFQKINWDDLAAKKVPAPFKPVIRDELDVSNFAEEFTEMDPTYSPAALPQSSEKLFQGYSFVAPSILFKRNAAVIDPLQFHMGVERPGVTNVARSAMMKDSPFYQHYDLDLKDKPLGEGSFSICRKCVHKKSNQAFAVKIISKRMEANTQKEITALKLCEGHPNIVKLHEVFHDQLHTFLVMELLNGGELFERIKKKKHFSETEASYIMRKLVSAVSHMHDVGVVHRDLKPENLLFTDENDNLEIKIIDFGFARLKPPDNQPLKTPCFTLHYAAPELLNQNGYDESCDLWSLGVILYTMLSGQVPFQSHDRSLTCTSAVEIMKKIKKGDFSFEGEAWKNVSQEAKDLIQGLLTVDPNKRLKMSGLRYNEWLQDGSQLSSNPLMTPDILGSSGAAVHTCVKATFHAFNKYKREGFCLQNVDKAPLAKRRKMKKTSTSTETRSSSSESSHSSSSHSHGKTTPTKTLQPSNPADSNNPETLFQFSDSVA
Sequence of Cyclin-dependent kinase 5 (Homo sapiens) (Q00535 whole entry, looked up): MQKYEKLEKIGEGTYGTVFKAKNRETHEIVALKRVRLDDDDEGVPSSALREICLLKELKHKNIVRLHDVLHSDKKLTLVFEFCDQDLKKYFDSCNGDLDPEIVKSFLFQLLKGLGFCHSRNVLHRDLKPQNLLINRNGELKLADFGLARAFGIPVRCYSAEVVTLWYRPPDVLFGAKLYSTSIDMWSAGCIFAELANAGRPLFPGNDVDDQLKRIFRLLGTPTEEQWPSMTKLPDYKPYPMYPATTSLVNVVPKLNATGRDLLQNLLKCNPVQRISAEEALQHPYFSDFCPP
Sequence of Serine/threonine-protein kinase Nek6 (Homo sapiens) (Q9HC98 whole entry): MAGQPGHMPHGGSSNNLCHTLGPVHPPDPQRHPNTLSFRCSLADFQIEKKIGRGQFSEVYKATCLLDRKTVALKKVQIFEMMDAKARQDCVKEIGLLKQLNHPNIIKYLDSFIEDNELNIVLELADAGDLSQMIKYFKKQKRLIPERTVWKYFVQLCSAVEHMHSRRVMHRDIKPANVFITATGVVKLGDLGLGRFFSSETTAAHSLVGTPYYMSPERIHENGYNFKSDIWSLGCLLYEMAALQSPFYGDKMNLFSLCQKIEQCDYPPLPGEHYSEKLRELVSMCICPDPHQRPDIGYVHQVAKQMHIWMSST
Sequence of Casein kinase II subunit alpha (Homo sapiens) (P68400 whole entry, looked up): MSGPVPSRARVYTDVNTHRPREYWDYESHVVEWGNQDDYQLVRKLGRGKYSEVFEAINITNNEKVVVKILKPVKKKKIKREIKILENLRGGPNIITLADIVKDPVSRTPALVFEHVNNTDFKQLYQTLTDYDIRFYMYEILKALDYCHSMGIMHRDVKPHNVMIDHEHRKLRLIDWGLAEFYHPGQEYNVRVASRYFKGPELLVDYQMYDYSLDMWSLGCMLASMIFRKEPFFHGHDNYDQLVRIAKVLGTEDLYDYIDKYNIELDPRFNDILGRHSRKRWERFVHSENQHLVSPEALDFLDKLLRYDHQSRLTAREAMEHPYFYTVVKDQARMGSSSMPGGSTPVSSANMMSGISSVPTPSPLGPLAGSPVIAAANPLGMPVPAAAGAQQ
Sequence of Fibroblast growth factor receptor 2 (Homo sapiens) (P21802 22-821 limits assumed): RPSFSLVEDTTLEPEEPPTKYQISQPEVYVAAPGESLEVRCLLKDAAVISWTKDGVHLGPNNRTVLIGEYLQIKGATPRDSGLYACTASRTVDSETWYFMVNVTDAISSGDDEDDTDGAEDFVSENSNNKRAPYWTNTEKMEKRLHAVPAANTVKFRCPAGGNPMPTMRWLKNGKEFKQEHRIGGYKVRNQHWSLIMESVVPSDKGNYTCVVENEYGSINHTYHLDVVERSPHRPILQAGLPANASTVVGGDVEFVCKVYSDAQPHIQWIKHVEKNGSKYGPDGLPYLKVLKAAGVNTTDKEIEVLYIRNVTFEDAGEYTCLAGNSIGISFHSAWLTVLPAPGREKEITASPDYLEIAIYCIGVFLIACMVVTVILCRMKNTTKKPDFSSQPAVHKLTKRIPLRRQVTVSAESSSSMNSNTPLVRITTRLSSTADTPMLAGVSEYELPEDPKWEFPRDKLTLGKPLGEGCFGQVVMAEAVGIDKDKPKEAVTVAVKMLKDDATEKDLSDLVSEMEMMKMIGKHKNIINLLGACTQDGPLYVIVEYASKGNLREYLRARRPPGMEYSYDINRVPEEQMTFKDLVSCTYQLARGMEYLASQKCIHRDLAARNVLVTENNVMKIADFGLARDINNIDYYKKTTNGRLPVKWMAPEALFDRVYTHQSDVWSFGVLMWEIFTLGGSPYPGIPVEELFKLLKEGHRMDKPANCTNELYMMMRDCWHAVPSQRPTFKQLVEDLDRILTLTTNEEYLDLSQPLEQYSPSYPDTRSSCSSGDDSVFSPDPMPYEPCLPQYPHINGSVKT
Sequence of Serine/threonine-protein kinase 16 (Homo sapiens) (O75716 whole entry): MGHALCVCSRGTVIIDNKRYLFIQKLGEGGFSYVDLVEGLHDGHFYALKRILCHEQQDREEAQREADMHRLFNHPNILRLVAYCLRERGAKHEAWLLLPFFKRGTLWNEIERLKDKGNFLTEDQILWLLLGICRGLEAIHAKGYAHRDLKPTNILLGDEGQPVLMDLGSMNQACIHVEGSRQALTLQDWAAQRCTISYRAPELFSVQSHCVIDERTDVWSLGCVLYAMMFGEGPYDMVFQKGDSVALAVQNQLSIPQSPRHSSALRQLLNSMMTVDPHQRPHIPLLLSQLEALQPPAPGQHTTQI

With `CCN1CCN(Cc2ccc(NC(=O)c3ccc(C)c(Oc4ccnc5[nH]ccc45)c3)cc2C(F)(F)F)CC1` the inhibition [1] was 23%, the inhibition [2] was 6.7% and the inhibition [3] was “inactive”. It also gave an inhibition [4] of 12.3%, an inhibition [5] of 8% and an inhibition [6] of 12.5%. It also gave an inhibition [7] of -3%, an inhibition [8] of 60.1% and a percent of control [9] of 1.4%. For the same compound, the inhibition [10] was “inactive”.

`CCN1CCN(Cc2ccc(NC(=O)c3ccc(C)c(/C=C/c4cnc5[nH]ccc5c4OC)c3)cc2C(F)(F)F)CC1` was tested, and the residual activity [11] was 100%, the inhibition [12] was 0.6% and the inhibition [13] was 100%.

Work on `CNc1cc(Oc2cc(C(=O)Nc3cc(N4CCN(C)CC4)cc(C(F)(F)F)c3)ccc2C)ncn1` yielded an inhibition [14] of 28.2%, an inhibition [15] of 4.6% and an inhibition [16] of 22.5%. It also gave an inhibition [17] of 21.6%.
